Experimental data taken from patent EP4349333A1, “USE OF AMINOPYRIDINE, IN PARTICULAR AMIRAMPRIDINE, IN THE TREATMENT OF VIRALLY ASSOCIATED FATIGUE” (Böhmeke, Thomas, priority 2022, dated 2024).

Columns and labels:
[1] = tested on: Fatigue-Symptomatik nach Covid-Infektion; test: Off-label case reports (Fall 1-3) in fatigue after Covid infection; format: in vivo, Patienten
Excerpt: (§1) In den nachfolgend genannten Anwendungsbeispielen wurde 3,4-Diaminopyridin Amifamprindin (Formulierung als Fertigarzneimittel) verabreicht. Im Rahmen der doppelt-blind Studie wurden gleich aussende Kapseln mit Amifampridin oder Placebo apothekenseitig verblindet zubereitet, wobei nur apothekenseitig bekannt war welche Kapseln Wirkstoff oder Placebo enthielten.
Ruhebedürfnis bis zu 20 Stunden pro Tag (brain fog) sowie ausgeprägter Konzentrationsschwäche.
Im Fall 2 wird eine Patientin beschrieben, die ebenfalls unter einer gravierenden Fatigue-Symptomatik nach Covid-Infektion 5/22 litt, eine zuzuordnende neurologische oder internistische Grunderkrankung bestand nicht. […] Die nachfolgenden Labor- und EKG-Kontrollen zur Erfassung substanzassoziierter Komplikationen waren unauffällig.
Im Fall 3 wird ein Patient beschrieben, der nach zweimaliger Covid-Infektion unter Fatigue-Symptomatik mit einem Schlafbedürfnis bis zu 2 x 9 Stunden pro Tag litt.

[2] = tested on: Fatigue-Symptomatik bei Post-Covid-Syndrom; test: Further study / case series Pat. 1-5: Bell-Score and sleep need in post-Covid syndrome; format: in vivo, Patienten
Excerpt: (§2) Die Bell-score (oder skala) ist ein Massstab der Behinderung bei ME & CFS. Auch für Long Covid-Patient:innen ist sie geeignet. Die Bell-Skala ist individuell, da jeder Patientinnen eine unterschiedliche Belastungsintoleranz aufweist und das Erleiden von schweren Symptomen in Ruhe verhältnismässig unterschiedlich sein kann.
Es wurde eine weitere Studie an einer Patientengruppe durchgeführt.
Die Prävalenz eines Post-Covid-Syndroms (PCS) liegt bei 10-15 % nach SARS-COV-2-Infektion, neben spezifischen Organerkrankungen treten vielfältige funktionelle Beschwerden auf, vorrangig eine Fatigue-Symptomatik. Diese ist gekennzeichnet durch persistierende Müdigkeit, Schwäche, kognitive Defizite sowie vermehrtem Schlafbedürfnis. In dieser Studie bzw. Fallserie wird der Effekt von Amifampridin bei Patienten mit PCS beschrieben, die unter unphysiologisch gesteigertem Schlafbedürfnis sowie eingeschränkter Kognition litten. Zur Evaluation wurde der Bell-Score verwendet, der auf die Einschränkung der Vigilanz, körperlichen Belastbarkeit und Berufstätigkeit fokussiert.

[3] = tested on: Fatigue-Symptomatik nach SARS-COV-2-Infektion; test: Patients 2.1 to 2.5: Bell-Score and sleep need with Amifampridin (Fig. 1 and 2); format: in vivo, Patienten
Excerpt: as §2
Die nachfolgenden Dosierungen der Patienten 2.1 bis 2.5 und die veränderten Bell-Sore Werte sowie das Schlafbedürfnis in Stunden sind in den Figuren 1 und 2 dargestellt (Fig. 1 Bells-Sore mit und ohne Amifampridin, Patienten 2.1 bis 2.5, Fig. 2: kumulierte Schlafzeit in 24 h).

[4] = tested on: Fatigue-Symptomatik nach SARS-COV-2-Infektion; test: Double-blind withdrawal trial, verum and placebo for 3 days each; format: in vivo, Patienten; conditions: Pat. 2.1; on Amifampridin at start of verum phase (4 x 5 mg per day, days 1-3)
Protocol: as §1
Bei Pat. 2.1 und 2.2 waren zur Rekonvaleszenz eine Dauermedikation mit jeweils 20 mg Amifampridin pro Tag erforderlich und boten damit Voraussetzungen für einen doppelt-blinden Auslassversuch über jeweils 3 Tage.
Pat. 2.1 mit Verum an Tagen 1-3, nachfolgend Placebo an den Tagen 4-6: Pat. (Pat. 2.1) mit Bell-Score 90 begann bereits mit Amifampridin, wie vorstehend beschrieben, und setzte diese mit Blister mit 6 Tagesdosen je Tag ein Fach mit Kapseln für 3 Tage mit je 4 mal 5 mg Amifampridin fort. Die Dosierung betrugt jeweils für 3 Tage Placebo mit je 4mal Placebo-Kapseln für Patient 1 und 2 (Verum und Placebo).

[5] = tested on: Lambert-Eaton-Myasthenie-Syndrom (LEMS); conditions: cited from earlier work
[6] = tested on: Fatigue-Symptomatik bei MS-Patienten; conditions: described in the literature; cited from earlier work
[7] = Pat. 5 (LEMS), 3 or 4 x 5 mg as daily dose
[8] = Pat. 2.5 (LEMS), initial 3 x 5 mg

With `Nc1ccncc1N` [Amifampridin, Pyridin-3,4-diamin] the “muskuläre Defizite” value ([1]; Fall 1) was “umgehende Besserung”, the Fatigue-Symptomatik ([1]; Fall 1, since Covid infection, sleep/rest need up to 20 Stunden pro Tag before) was “schlagartige Besserung” and the “Labor- und EKG-Kontrollen zur Erfassung substanzassoziierter Komplikationen” value ([1]; Fall 2) was “unauffällig”. For the same compound, the Fatigue-Symptomatik ([1]; Fall 2, 5 mg) was “komplette Besserung”, the Konzentrationsfähigkeit ([1]; Fall 2, 5 mg) was “vollständiger Restitution” and the “zuzuordnende Nebenwirkung” value ([1]; Fall 2, 5 mg) was “leichte periorale Parästhesien”. The Fatigue ([1]; Fall 2, Tagesdosis 3 x 5 mg) was “sistiert die vorbestehende Fatigue vollständig”, the Konzentrationsfähigkeit ([1]; Fall 3, 5 mg) was “schlagartigen Besserung” and the “Nebenwirkung (periorale Parästhesien)” value ([1]; Fall 3, 5 mg) was “transiente periorale Parästhesien mit sehr geringer Intensität”. For the same compound, the “Schlaf- und Ruhebedürfnis” value ([1]; Fall 3, 5 mg) was “physiologischem”, the Schlafbedürfnis ([2]; Pat. 1, after 3 intakes of 5 mg over 24 h, before 12) was 7 Stunden / 24h and the Bell-Score ([2]; Pat. 1, after 3 intakes of 5 mg over 24 h, before 20 to 40) was 100. For the same compound, the Vigilanz ([2]; Pat. 2, after 3 doses of 5 mg) was “uneingeschränkte Vigilanz”, the Schlafbedürfnis ([2]; Pat. 2, after 3 doses of 5 mg, before 12) was 7,5 Stunden /24 h and the Bell-Score ([2]; Pat. 2, after 3 doses of 5 mg, before 40) was 100. The Schlafbedürfnis ([2]; Pat. 3, after one intake of 5 mg, before 11 to 12) was 7-9 Stunden, the Bell-Score ([2]; Pat. 3, after one intake of 5 mg, before 40) was 100 and the “duration of the effect” value ([2]; Pat. 3, one intake of 5 mg) was roughly 36 Stunden. For the same compound, the Bell-Score ([2]; Pat. 4, 3 x 5 mg over 24 h, before 20, Post-Covid-Myokarditis) was 50, the Fatigue [2, 7] was “sistierte die Fatigue” and the “muskuläre Belastbarkeit” value [2, 7] was “gebesserte muskuläre Belastbarkeit”. The Schlafbedürfnis ([2]; Pat. 5 (LEMS), 3 or 4 x 5 mg as daily dose, before 16 to 18) was 8-9 Stunden / 24h, the Fatigue-Symptomatik ([2]; patient group of the further study, Post-Covid-Syndrom) was “reduzierte Fatigue-Symptomatik” and the Schlafbedürfnis ([3]; Pat. 2.1, after single intake of 5 mg, before 12) was 7 Stunden / 24h. The Bell-Score ([3]; Pat. 2.1, after single intake of 5 mg, before 20 to 40) was 100, the “duration of the effect” value ([3]; Pat. 2.2, 5 mg) was roughly 36 Stunden and the Schlafbedürfnis ([3]; Pat. 2.2, after 5 mg, before 11-12) was 7-9 Stunden. For the same compound, the Bell-Score ([3]; Pat. 2.2, after 5 mg, before 40) was 80, the Vigilanz ([3]; Pat. 2.3, after 5 mg) was “uneingeschränkte Vigilanz” and the Schlafbedürfnis ([3]; Pat. 2.3, after 5 mg, before 12) was 7,5 Stunden /24 h. For the same compound, the Bell-Score ([3]; Pat. 2.3, after 5 mg, before 40) was 100, the “Bell-Score in Bezug auf die muskulären Defizite” value ([3]; Pat. 2.5 (LEMS), 3 x 20 mg plus 5 mg if needed (60 to 70 mg per day)) was “ca. 20” and the Fatigue [3, 8] was “sistierte die Fatigue”. For the same compound, the “muskuläre Belastbarkeit” value [3, 8] was “gebesserte muskuläre Belastbarkeit”, the Bell-Score ([3]; Pat. 2.5 (LEMS), initial 3 x 5 mg, before 10) was 80 and the Schlafbedürfnis ([3]; Pat. 2.5 (LEMS), initial 3 x 5 mg, before 16-18) was 8-9 Stunden / 24h. The Bell-Score ([3]; Patientin 2.4, after 5 mg, before 20, Post-Covid-Myokarditis) was 50, the Bell-Score [4] was 90 and the “koindizierte Fatigue” value ([5]; LEMS-Patienten, stated as known) was “Besserung”.
For `Nc1ccncc1N` [Amifampridine Phosphate (Firdapse), Amifampridine Phosphate], the “koinzidente Fatigue” value ([5]; LEMS, 20 bis 80 mg als Tagesdosen, J Clin Neuromuscul Dis. 2019) is given as “Besserung einer koinzidenten Fatigue”.
For `Nc1ccncc1` [Fampridin], the “begleitende Fatigue-Symptomatik” value [6] is listed as “Besserung”.
